HELM strings list units from the 5' end as sugar, base in round brackets, then linkage (d deoxyribose, r ribose, m 2'-O-methyl, p phosphodiester). Strings are as the collection lists them; they lack the last nucleoside at the 3' end of the tested compound. [moe] = 2'-O-(2-methoxyethyl) (MOE); [sp] = phosphorothioate linkage; [m5C] = 5-methylcytosine

The target in this data set is APP. Kind of data set: mouse, dose not given. As to conditions: ASO.

The substance “RNA1{[moe](T)[sp].[moe](G)p.[moe](G)p.[moe](G)p.[moe]([m5C])[sp].d(A)[sp].d(T)[sp].d([m5C])[sp].d(A)[sp].d(T)[sp].d(T)[sp].d(T)[sp].d(T)[sp].d(T)[sp].d(G)[sp].[moe]([m5C])p.[moe](T)p.[moe]([m5C])[sp].[moe]([m5C])}$$$$ (last 3' nucleoside missing)” displayed a 3 h FOB score of 0 score 0-7.

With “RNA1{[moe](T)[sp].[moe](G)p.[moe](G)p.[moe](T)p.[moe](A)[sp].d([m5C])[sp].d(T)[sp].d(A)[sp].d(T)[sp].d(T)[sp].d(T)[sp].d([m5C])[sp].d(T)[sp].d(A)[sp].d(A)[sp].[moe](G)p.[moe](G)p.[moe](A)[sp].[moe](A)}$$$$ (last 3' nucleoside missing)”, the 3 h FOB score amounted to 0.33 score 0-7.

“RNA1{[moe](T)[sp].[moe](G)p.[moe](G)p.[moe](T)p.[moe](T)[sp].d(T)[sp].d(A)[sp].d([m5C])[sp].d([m5C])[sp].d(T)[sp].d(T)[sp].d(T)[sp].d(A)[sp].d(A)[sp].d([m5C])[sp].[moe](A)p.[moe](T)p.[moe](T)[sp].[moe]([m5C])}$$$$ (last 3' nucleoside missing)” returned a 3 h FOB score of 0 score 0-7.

On to “RNA1{[moe](T)[sp].[moe](G)p.[moe](G)p.[moe](T)p.[moe]([m5C])[sp].d(A)[sp].d(T)[sp].d(T)[sp].d(A)[sp].d([m5C])[sp].d(T)[sp].d(A)[sp].d([m5C])[sp].d(T)[sp].d(T)[sp].[moe](A)p.[moe]([m5C])p.[moe](A)[sp].[moe]([m5C])}$$$$ (last 3' nucleoside missing)”, for which the 3 h FOB score was 0 score 0-7.

“RNA1{[moe](T)[sp].[moe](G)p.[moe](G)p.[moe](T)p.[moe]([m5C])[sp].d(A)[sp].d(T)[sp].d([m5C])[sp].d(A)[sp].d(A)[sp].d([m5C])[sp].d(T)[sp].d(T)[sp].d(T)[sp].d(T)[sp].[moe](T)p.[moe](A)p.[moe](G)[sp].[moe](T)}$$$$ (last 3' nucleoside missing)” came in with a 3 h FOB score of 0 score 0-7.

For “RNA1{[moe](T)[sp].[moe](G)p.[moe](G)p.[moe](T)p.[moe]([m5C])[sp].d(T)[sp].d(A)[sp].d(T)[sp].d(A)[sp].d(T)[sp].d(A)[sp].d(T)[sp].d(T)[sp].d(T)[sp].d([m5C])[sp].[moe](A)p.[moe](G)p.[moe](G)[sp].[moe]([m5C])}$$$$ (last 3' nucleoside missing)”, the 3 h FOB score is 0 score 0-7.

Substance “RNA1{[moe](T)[sp].[moe](G)p.[moe](G)p.[moe]([m5C])p.[moe](A)[sp].d(A)[sp].d(A)[sp].d([m5C])[sp].d(T)[sp].d([m5C])[sp].d(T)[sp].d([m5C])[sp].d(T)[sp].d(T)[sp].d(A)[sp].[moe](G)p.[moe](G)p.[moe](T)[sp].[moe](T)}$$$$ (last 3' nucleoside missing)” gave a 3 h FOB score of 1.33 score 0-7.

The substance “RNA1{[moe](T)[sp].[moe](G)p.[moe](G)p.[moe]([m5C])p.[moe](T)[sp].d(T)[sp].d(A)[sp].d(T)[sp].d(G)[sp].d(A)[sp].d(T)[sp].d([m5C])[sp].d(T)[sp].d(A)[sp].d(T)[sp].[moe](A)p.[moe]([m5C])p.[moe](A)[sp].[moe]([m5C])}$$$$ (last 3' nucleoside missing)” yielded a 3 h FOB score of 1 score 0-7.

Turning to “RNA1{[moe](T)[sp].[moe](G)p.[moe](T)p.[moe](G)p.[moe](A)[sp].d(T)[sp].d(T)[sp].d(T)[sp].d([m5C])[sp].d(A)[sp].d([m5C])[sp].d(T)[sp].d(A)[sp].d(A)[sp].d([m5C])[sp].[moe]([m5C])p.[moe](G)p.[moe](G)[sp].[moe]([m5C])}$$$$ (last 3' nucleoside missing)”, the 3 h FOB score turned out to be 1.25 score 0-7.

Substance “RNA1{[moe](T)[sp].[moe](G)p.[moe](T)p.[moe](G)p.[moe]([m5C])[sp].d(A)[sp].d([m5C])[sp].d(A)[sp].d(T)[sp].d(A)[sp].d(A)[sp].d(A)[sp].d(A)[sp].d([m5C])[sp].d(A)[sp].[moe](G)p.[moe](G)p.[moe]([m5C])[sp].[moe](A)}$$$$ (last 3' nucleoside missing)” had a 3 h FOB score of 1 score 0-7.

In turn, “RNA1{[moe](T)[sp].[moe](G)p.[moe](T)p.[moe](T)p.[moe]([m5C])[sp].d([m5C])[sp].d(A)[sp].d(A)[sp].d(A)[sp].d(G)[sp].d(A)[sp].d(T)[sp].d(T)[sp].d([m5C])[sp].d([m5C])[sp].[moe](A)p.[moe]([m5C])p.[moe](T)[sp].[moe](T)}$$$$ (last 3' nucleoside missing)” registered a 3 h FOB score of 1 score 0-7.

The substance “RNA1{[moe](T)[sp].[moe](T)p.[moe](A)p.[moe]([m5C])p.[moe](A)[sp].d(T)[sp].d([m5C])[sp].d(A)[sp].d(T)[sp].d(T)[sp].d(T)[sp].d(T)[sp].d([m5C])[sp].d(T)[sp].d(T)[sp].[moe](G)p.[moe]([m5C])p.[moe](A)[sp].[moe](G)}$$$$ (last 3' nucleoside missing)” registered a 3 h FOB score of 0.33 score 0-7.

In turn, “RNA1{[moe](T)[sp].[moe](T)p.[moe](A)p.[moe]([m5C])p.[moe]([m5C])[sp].d(T)[sp].d(T)[sp].d(T)[sp].d(A)[sp].d(A)[sp].d([m5C])[sp].d(A)[sp].d(T)[sp].d(T)[sp].d([m5C])[sp].[moe]([m5C])p.[moe](T)p.[moe]([m5C])[sp].[moe](A)}$$$$ (last 3' nucleoside missing)” gave a 3 h FOB score of 0 score 0-7.

“RNA1{[moe](T)[sp].[moe](T)p.[moe](G)p.[moe](A)p.[moe](A)[sp].d([m5C])[sp].d([m5C])[sp].d([m5C])[sp].d(A)[sp].d([m5C])[sp].d(A)[sp].d(T)[sp].d([m5C])[sp].d(T)[sp].d(T)[sp].[moe]([m5C])p.[moe](T)p.[moe](G)[sp].[moe]([m5C])}$$$$ (last 3' nucleoside missing)”: the 3 h FOB score amounted to 0 score 0-7.

The substance “RNA1{[moe](T)[sp].[moe](T)p.[moe](G)p.[moe](A)p.[moe](T)[sp].d(A)[sp].d(T)[sp].d(T)[sp].d(T)[sp].d(G)[sp].d(T)[sp].d([m5C])[sp].d(A)[sp].d(A)[sp].d([m5C])[sp].[moe]([m5C])p.[moe]([m5C])p.[moe](A)[sp].[moe](G)}$$$$ (last 3' nucleoside missing)” showed a 3 h FOB score of 2.5 score 0-7.

The substance “RNA1{[moe](T)[sp].[moe](T)p.[moe](G)p.[moe](A)p.[moe](T)[sp].d(G)[sp].d([m5C])[sp].d(A)[sp].d([m5C])[sp].d(A)[sp].d(T)[sp].d(A)[sp].d(T)[sp].d([m5C])[sp].d([m5C])[sp].[moe](A)p.[moe](G)p.[moe](G)[sp].[moe]([m5C])}$$$$ (last 3' nucleoside missing)” yielded a 3 h FOB score of 2 score 0-7.

In turn, “RNA1{[moe](T)[sp].[moe](T)p.[moe](G)p.[moe](A)p.[moe](T)p.[moe](A)p.d(T)[sp].d(T)[sp].d(T)[sp].d(G)[sp].d(T)[sp].d([m5C])[sp].d(A)[sp].d(A)[sp].d([m5C])[sp].d([m5C])[sp].[moe]([m5C])p.[moe](A)[sp].[moe](G)}$$$$ (last 3' nucleoside missing)” had a 3 h FOB score of 4.75 score 0-7.

In turn, “RNA1{[moe](T)[sp].[moe](T)p.[moe](G)p.[moe](G)p.[moe](A)[sp].d(T)[sp].d(T)[sp].d([m5C])[sp].d(A)[sp].d(T)[sp].d([m5C])[sp].d(T)[sp].d([m5C])[sp].d([m5C])[sp].d(A)[sp].[moe](T)p.[moe](A)p.[moe]([m5C])[sp].[moe](T)}$$$$ (last 3' nucleoside missing)” showed a 3 h FOB score of 0 score 0-7.

In the case of “RNA1{[moe](T)[sp].[moe](T)p.[moe](G)p.[moe](T)p.[moe](A)[sp].d(G)[sp].d(G)[sp].d(A)[sp].d(A)[sp].d([m5C])[sp].d(T)[sp].d([m5C])[sp].d(G)[sp].d(A)[sp].d(A)[sp].[moe]([m5C])p.[moe]([m5C])p.[moe](A)[sp].[moe]([m5C])}$$$$ (last 3' nucleoside missing)”, the 3 h FOB score turned out to be 2 score 0-7.

“RNA1{[moe](T)[sp].[moe](T)p.[moe](T)p.[moe](A)p.[moe]([m5C])[sp].d([m5C])[sp].d(T)[sp].d(T)[sp].d(T)[sp].d(A)[sp].d(A)[sp].d([m5C])[sp].d(A)[sp].d(T)[sp].d(T)[sp].[moe]([m5C])p.[moe]([m5C])p.[moe](T)[sp].[moe]([m5C])}$$$$ (last 3' nucleoside missing)”: the 3 h FOB score turned out to be 0 score 0-7.

Consider “RNA1{[moe](T)[sp].[moe](T)p.[moe](T)p.[moe](G)p.[moe]([m5C])[sp].d(A)[sp].d(T)[sp].d(A)[sp].d(T)[sp].d(T)[sp].d([m5C])[sp].d(A)[sp].d(T)[sp].d(A)[sp].d([m5C])[sp].[moe](T)p.[moe](T)p.[moe](G)[sp].[moe](G)}$$$$ (last 3' nucleoside missing)”, for which the 3 h FOB score is 0 score 0-7.

“RNA1{[moe](T)[sp].[moe](T)p.[moe](T)p.[moe](G)p.[moe]([m5C])[sp].d(T)[sp].d(A)[sp].d([m5C])[sp].d(T)[sp].d(T)[sp].d(G)[sp].d(A)[sp].d(T)[sp].d(A)[sp].d(A)[sp].[moe](T)p.[moe]([m5C])p.[moe]([m5C])[sp].[moe](T)}$$$$ (last 3' nucleoside missing)” registered a 3 h FOB score of 1 score 0-7.

“RNA1{[moe](T)[sp].[moe](T)p.[moe]([m5C])p.[moe](A)p.[moe]([m5C])[sp].d(A)[sp].d(G)[sp].d(T)[sp].d(T)[sp].d(T)[sp].d(A)[sp].d([m5C])[sp].d([m5C])[sp].d([m5C])[sp].d([m5C])[sp].[moe](A)p.[moe](A)p.[moe](G)[sp].[moe]([m5C])}$$$$ (last 3' nucleoside missing)” came in with a 3 h FOB score of 0 score 0-7.

In turn, “RNA1{[moe](T)[sp].[moe](T)p.[moe]([m5C])p.[moe]([m5C])p.[moe](A)[sp].d(A)[sp].d(A)[sp].d(G)[sp].d(A)[sp].d(T)[sp].d(T)[sp].d([m5C])[sp].d([m5C])[sp].d(A)[sp].d([m5C])[sp].[moe](T)p.[moe](T)p.[moe](T)[sp].[moe]([m5C])}$$$$ (last 3' nucleoside missing)” came in with a 3 h FOB score of 0 score 0-7.

“RNA1{[moe](T)[sp].[moe]([m5C])p.[moe](A)p.[moe](G)p.[moe]([m5C])[sp].d([m5C])[sp].d([m5C])[sp].d([m5C])[sp].d(A)[sp].d(A)[sp].d(A)[sp].d(A)[sp].d(G)[sp].d(A)[sp].d(A)[sp].[moe](T)p.[moe](G)p.[moe]([m5C])[sp].[moe]([m5C])}$$$$ (last 3' nucleoside missing)” came in with a 3 h FOB score of 0 score 0-7.

The record behind these values is the OligoGym collection.
